According to patent publication US9108944B2, “Androgen receptor modulators and uses thereof” (ARAGON PHARMACEUTICALS, INC., priority 2010, dated 2015):

Experiments:
AR-VP16 [1] = target: T1, AR-VP16 (Homo sapiens, UniProt P10275); test: AR-VP16 DNA Binding Assay, agonist mode (HepG2 cells); format: cell-based; conditions: Emax >20x DMSO control = agonist
T1 sequence (P10275 560-920 limits assumed): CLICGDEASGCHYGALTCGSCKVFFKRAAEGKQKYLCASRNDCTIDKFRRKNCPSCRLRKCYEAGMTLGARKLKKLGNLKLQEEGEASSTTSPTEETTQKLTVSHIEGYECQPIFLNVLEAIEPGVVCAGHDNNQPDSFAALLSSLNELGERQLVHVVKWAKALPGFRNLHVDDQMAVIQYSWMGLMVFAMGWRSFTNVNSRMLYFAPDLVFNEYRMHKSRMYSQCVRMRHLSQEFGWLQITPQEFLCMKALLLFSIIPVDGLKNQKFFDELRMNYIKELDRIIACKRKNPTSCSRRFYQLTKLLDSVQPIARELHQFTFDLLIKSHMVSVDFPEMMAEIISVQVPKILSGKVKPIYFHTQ

AR-VP16 [2] = target: T1, AR-VP16; test: AR-VP16 DNA Binding Assay, antagonist mode (HepG2 cells, 0.1 nM R1881); format: cell-based
How it was run: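 HepG2 cells transiently transfected with AR-VP16 (Lipofectin), incubated overnight, then treated with compound in RPMI with charcoal-stripped serum. Antagonist mode adds R1881 at 0.1 nM final. Cells lysed after 48 h incubation for read-out.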

Structure (SMILES) | ARVP16 DNA Binding Assay (Agonist mode): Agonist? (AR-VP16 [1]) | IC50 (AR-VP16 [2]) [µM]
N#Cc1ncc(N2C(=O)C3(CCC3)N(c3ccc(O)c(F)c3)C2=S)cc1C(F)(F)F [Compound 1, 5-(5-(3-Fluoro-4-hydroxyphenyl)-8-oxo-6-thioxo-5,7-diazaspiro[3.4]octan-7-yl)-3-(trifluoromethyl)picolinonitrile] | No (Agonist defined as a compound whose Emax in the ARVP16 DNA Binding Assay (Agonist mode) is >20x DMSO control) | < 1
CN1CCC(Oc2ccc(N3C(=S)N(c4cnc(C#N)c(C(F)(F)F)c4)C(=O)C34CCC4)cc2)CC1 [Compound 129, 5-(5-(4-((1-Methylpiperidin-4-yl)oxy)phenyl)-8-oxo-6-thioxo-5,7-diazaspiro[3.4]octan-7-yl)-3-(trifluoromethyl)picolinonitrile] | No (Agonist defined as a compound whose Emax in the ARVP16 DNA Binding Assay (Agonist mode) is >20x DMSO control) | –
N#Cc1ncc(N2C(=O)C3(CCC3)N(c3ccc(OC4CCN(CCO)CC4)cc3)C2=S)cc1C(F)(F)F [Compound 218, 5-(5-(4-((1-(2-hydroxyethyl)piperidin-4-yl)oxy)phenyl)-8-oxo-6-thioxo-5,7-diazaspiro[3.4]octan-7-yl)-3-(trifluoromethyl)picolinonitrile] | – | < 1
CNC(=O)CCCc1ccc(N2C(=S)N(c3cnc(C#N)c(C(F)(F)F)c3)C(=O)C23CCC3)cc1 [Compound 230, 4-(4-(7-(6-Cyano-5-(trifluoromethyl)pyridin-3-yl)-8-oxo-6-thioxo-5,7-diazaspiro[3.4]octan-5-yl)phenyl)-N-methylbutanamide] | – | < 1
N#Cc1ncc(N2C(=O)C3(CCC3)N(c3ccc(C(=O)NCc4ccccc4)c(F)c3)C2=S)cc1C(F)(F)F [Compound 235, N-Benzyl-4-(7-(6-cyano-5-(trifluoromethyl)pyridin-3-yl)-8-oxo-6-thioxo-5,7-diazaspiro[3.4]octan-5-yl)-2-fluorobenzamide] | – | < 1
COCCNC(=O)c1ccc(N2C(=S)N(c3cnc(C#N)c(C(F)(F)F)c3)C(=O)C23CCC3)cc1F [Compound 248, 4-(7-(6-Cyano-5-(trifluoromethyl)pyridin-3-yl)-8-oxo-6-thioxo-5,7-diazaspiro[3.4]octan-5-yl)-2-fluoro-N-(2-methoxyethyl)benzamide] | – | > 1
N#Cc1ncc(N2C(=O)C3(CCC3)N(c3ccc(C(=O)NCCCc4ccccc4)c(F)c3)C2=S)cc1C(F)(F)F [Compound 258, 4-(7-(6-Cyano-5-(trifluoromethyl)pyridin-3-yl)-8-oxo-6-thioxo-5,7-diazaspiro[3.4]octan-5-yl)-2-fluoro-N-(3-phenylpropyl)benzamide] | – | < 1
N#Cc1ncc(N2C(=O)C3(CCC3)N(c3ccc(C(=O)NCc4cccs4)c(F)c3)C2=S)cc1C(F)(F)F [Compound 260, 4-(7-(6-Cyano-5-(trifluoromethyl)pyridin-3-yl)-8-oxo-6-thioxo-5,7-diazaspiro[3.4]octan-5-yl)-2-fluoro-N-(thiophen-2-ylmethyl)benzamide] | – | < 1
N#Cc1ncc(N2C(=O)C3(CCC3)N(c3ccc(C(=O)NCc4ccccn4)c(F)c3)C2=S)cc1C(F)(F)F [Compound 264, 4-(7-(6-Cyano-5-(trifluoromethyl)pyridin-3-yl)-8-oxo-6-thioxo-5,7-diazaspiro[3.4]octan-5-yl)-2-fluoro-N-(pyridin-2-ylmethyl)benzamide] | – | < 1
N#Cc1ncc(N2C(=O)C3(CCC3)N(c3ccc(C(=O)NCc4cccnc4)c(F)c3)C2=S)cc1C(F)(F)F [Compound 265, 4-(7-(6-Cyano-5-(trifluoromethyl)pyridin-3-yl)-8-oxo-6-thioxo-5,7-diazaspiro[3.4]octan-5-yl)-2-fluoro-N-(pyridin-3-ylmethyl)benzamide] | – | < 1
N#Cc1ncc(N2C(=O)C3(CCC3)N(c3ccc(C(=O)NC4CCCC4)c(F)c3)C2=S)cc1C(F)(F)F [Compound 267, 4-(7-(6-Cyano-5-(trifluoromethyl)pyridin-3-yl)-8-oxo-6-thioxo-5,7-diazaspiro[3.4]octan-5-yl)-N-cyclopentyl-2-fluorobenzamide] | – | < 1
N#Cc1ncc(N2C(=O)C3(CCC3)N(c3ccc(C(=O)NCCCN4CCOCC4)c(F)c3)C2=S)cc1C(F)(F)F [Compound 268, 4-(7-(6-Cyano-5-(trifluoromethyl)pyridin-3-yl)-8-oxo-6-thioxo-5,7-diazaspiro[3.4]octan-5-yl)-2-fluoro-N-(3-morpholinopropyl)benzamide] | – | < 1
Cc1cc(N2C(=O)C3(CCC3)N(c3ccc(C(=O)NCc4ccccc4)c(F)c3)C2=S)cnc1C#N [Compound 273, N-Benzyl-4-(7-(6-cyano-5-methylpyridin-3-yl)-8-oxo-6-thioxo-5,7-diazaspiro[3.4]octan-5-yl)-2-fluorobenzamide] | – | < 1
CCCNC(=O)c1ccc(N2C(=S)N(c3cnc(C#N)c(C(F)(F)F)c3)C(=O)C23CCC3)cc1F [Compound 278, 4-(7-(6-Cyano-5-(trifluoromethyl)pyridin-3-yl)-8-oxo-6-thioxo-5,7-diazaspiro[3.4]octan-5-yl)-2-fluoro-N-propylbenzamide] | – | < 1
C#CCNC(=O)c1ccc(N2C(=S)N(c3cnc(C#N)c(C(F)(F)F)c3)C(=O)C23CCC3)cc1F [Compound 281, 4-(7-(6-Cyano-5-(trifluoromethyl)pyridin-3-yl)-8-oxo-6-thioxo-5,7-diazaspiro[3.4]octan-5-yl)-2-fluoro-N-(prop-2-yn-1-yl)benzamide] | – | < 1
CC(C)CCNC(=O)c1ccc(N2C(=S)N(c3cnc(C#N)c(C(F)(F)F)c3)C(=O)C23CCC3)cc1F [Compound 282, 4-(7-(6-Cyano-5-(trifluoromethyl)pyridin-3-yl)-8-oxo-6-thioxo-5,7-diazaspiro[3.4]octan-5-yl)-2-fluoro-N-isopentylbenzamide] | – | < 1
N#Cc1ncc(N2C(=O)C3(CCC3)N(c3ccc(C(=O)NC4CC4)c(F)c3)C2=S)cc1C(F)(F)F [Compound 284, 4-(7-(6-Cyano-5-(trifluoromethyl)pyridin-3-yl)-8-oxo-6-thioxo-5,7-diazaspiro[3.4]octan-5-yl)-N-cyclopropyl-2-fluorobenzamide] | – | < 1
CC(C)(O)CNC(=O)c1ccc(N2C(=S)N(c3cnc(C#N)c(C(F)(F)F)c3)C(=O)C23CCC3)cc1F [Compound 285, 4-(7-(6-Cyano-5-(trifluoromethyl)pyridin-3-yl)-8-oxo-6-thioxo-5,7-diazaspiro[3.4]octan-5-yl)-2-fluoro-N-(2-hydroxy-2-methylpropyl)benzamide] | – | > 1
CC(C)(C)NC(=O)c1ccc(N2C(=S)N(c3cnc(C#N)c(C(F)(F)F)c3)C(=O)C23CCC3)cc1F [Compound 286, N-(tert-Butyl)-4-(7-(6-cyano-5-(trifluoromethyl)pyridin-3-yl)-8-oxo-6-thioxo-5,7-diazaspiro[3.4]octan-5-yl)-2-fluorobenzamide] | – | < 1
N#Cc1ncc(N2C(=O)C3(CCC3)N(c3ccc(C(=O)NCc4ccccc4Cl)c(F)c3)C2=S)cc1C(F)(F)F [Compound 287, N-(2-Chlorobenzyl)-4-(7-(6-cyano-5-(trifluoromethyl)pyridin-3-yl)-8-oxo-6-thioxo-5,7-diazaspiro[3.4]octan-5-yl)-2-fluorobenzamide] | – | < 1
Cc1cc(N2C(=O)C3(CCC3)N(c3ccc(C(=O)Nc4ccc(F)cc4)c(F)c3)C2=S)cnc1C#N [Compound 299, 4-(7-(6-Cyano-5-methylpyridin-3-yl)-8-oxo-6-thioxo-5,7-diazaspiro[3.4]octan-5-yl)-2-fluoro-N-(4-fluorophenyl)benzamide] | – | < 1
Cc1cc(N2C(=O)C3(CCC3)N(c3ccc(C(=O)Nc4ncco4)c(F)c3)C2=S)cnc1C#N [Compound 300, 4-(7-(6-cyano-5-methylpyridin-3-yl)-8-oxo-6-thioxo-5,7-diazaspiro[3.4]octan-5-yl)-2-fluoro-N-(oxazol-2-yl)benzamide] | – | < 1
Cc1cc(N2C(=O)C3(CCC3)N(c3ccc(C(=O)Nc4nccs4)c(F)c3)C2=S)cnc1C#N [Compound 301, 4-(7-(6-Cyano-5-methylpyridin-3-yl)-8-oxo-6-thioxo-5,7-diazaspiro[3.4]octan-5-yl)-2-fluoro-N-(thiazol-2-yl)benzamide] | – | < 1
Cc1cc(N2C(=O)C3(CCC3)N(c3ccc(C(=O)Nc4ccnn4C)c(F)c3)C2=S)cnc1C#N [Compound 302, 4-(7-(6-Cyano-5-methylpyridin-3-yl)-8-oxo-6-thioxo-5,7-diazaspiro[3.4]octan-5-yl)-2-fluoro-N-(1-methyl-1H-pyrazol-5-yl)benzamide] | – | < 1
Cc1ccc(NC(=O)c2ccc(N3C(=S)N(c4cnc(C#N)c(C)c4)C(=O)C34CCC4)cc2F)cn1 [Compound 304, 4-(7-(6-Cyano-5-methylpyridin-3-yl)-8-oxo-6-thioxo-5,7-diazaspiro[3.4]octan-5-yl)-2-fluoro-N-(6-methylpyridin-3-yl)benzamide] | – | < 1
CN1CCN(C(=O)COc2ccc(N3C(=S)N(c4cnc(C#N)c(C(F)(F)F)c4)C(=O)C34CCC4)cc2F)CC1 [Compound 309, 5-(5-(3-Fluoro-4-(2-(4-methylpiperazin-1-yl)-2-oxoethoxy)phenyl)-8-oxo-6-thioxo-5,7-diazaspiro[3.4]octan-7-yl)-3-(trifluoromethyl)picolinonitrile] | – | < 1
Cc1cc(N2C(=O)C3(CCC3)N(c3ccc(C(=O)NC4CCOCC4)c(F)c3)C2=S)cnc1C#N [Compound 310, 4-(7-(6-Cyano-5-methylpyridin-3-yl)-8-oxo-6-thioxo-5,7-diazaspiro[3.4]octan-5-yl)-2-fluoro-N-(tetrahydro-2H-pyran-4-yl)benzamide] | – | > 1
